Experimental findings from patent publication US11884658B1, “1-cyclopropyl-6-fluoro-4-oxo-7-(4-((2-thioxobenzo[d]thiazol-3(2H)-yl)methyl)piperazin-1-yl)-1,4-dihydroquinoline-3-carboxylic acid as an antimicrobial compound” (KING FAISAL UNIVERSITY, priority 2023, dated 2024) are described below.

Type in all cases: cell-based
Test [1] relates to Pseudomonas aeruginosa. The test is described as follows: agar plate disc-diffusion, inhibition zone. Particulars: Gram negative; for zone of inhibition at 10000 ppm: A = concentration of comp. = 10,000 ppm; for zone of inhibition at 30000 ppm: B = concentration of comp. = 30000 ppm; for zone of inhibition at 50000 ppm: C = concentration of comp. = 50,000 ppm. The protocol:
(§1) The antimicrobial properties of the synthesized compound was studied by the method of agar plate disc-diffusion. Sterilized filter papers (6 mm in diameter) were wetted with 10 μL of a solution of 1-cyclopropyl-6-fluoro-4-oxo-7-(4-((2-thioxobenzo[d]thiazol-3(2H)-yl)methyl)piperazin-1-yl)-1,4-dihydroquinoline-3-carboxylic acid (4) to be tested, containing 10 mg/mL in DMSO and the discs were allowed to air dry. The discs were then placed onto the surface of agar plates (nutrient agar for bacteria) seeded with the test organism. Each plate contained 15 mL of the agar medium, previously seeded with 0.2 mL of the broth culture of each organism pregrown for 18 h. The inhibition zones were measured in […]. Discs impregnated with DMSO were used as a control, and its inhibition zone was subtracted from the tested compound actual inhibition zone.
A general note: In agar diffusion tests the substance spreads into inoculated agar from a disc or well.

Test [2] concerns Bacillus Cereus. Description: agar plate disc-diffusion, inhibition zone. Particulars: Gram positive; for zone of inhibition at 10000 ppm: A = concentration of comp. = 10,000 ppm; for zone of inhibition at 30000 ppm: B = concentration of comp. = 30000 ppm; for zone of inhibition at 50000 ppm: C = concentration of comp. = 50,000 ppm. The protocol: as §1
In test [3] the test system is Escherichia coli. The test is described as follows: agar plate disc-diffusion, inhibition zone. Particulars: Gram negative; for zone of inhibition at 10000 ppm: A = concentration of comp. = 10,000 ppm; for zone of inhibition at 30000 ppm: B = concentration of comp. = 30000 ppm; for zone of inhibition at 50000 ppm: C = concentration of comp. = 50,000 ppm. The procedure:
as §1

In test [4] the test system is Staphylococcus aureus. The test is described as follows: agar plate disc-diffusion, inhibition zone. Particulars: Gram positive; for zone of inhibition at 10000 ppm: A = concentration of comp. = 10,000 ppm; for zone of inhibition at 30000 ppm: B = concentration of comp. = 30000 ppm; for zone of inhibition at 50000 ppm: C = concentration of comp. = 50,000 ppm. The procedure:
as §1

Test [5] relates to gram positive and gram-negative bacterial strains. Description: antibacterial activity screen, overall statement. The conditions noted are these: Bacillus cereus, Staphylococcus aureus, Pseudomonas aeruginosa and Escherichia coli. The protocol:
as §1

Broadly, the zone of inhibition is the extent of the growth-free halo in a diffusion test. Lower therefore signals little suppression of growth. With `O=C(O)c1cn(C2CC2)c2cc(N3CCN(Cn4c(=S)sc5ccccc54)CC3)c(F)cc2c1=O` [Compound 4, 1-cyclopropyl-6-fluoro-4-oxo-7-(4-((2-thioxobenzo[d]thiazol-3(2H)-yl)methyl)piperazin-1-yl)-1,4-dihydroquinoline-3-carboxylic acid], the zone of inhibition at 10000 ppm in test [1] came to 24 mm; in test [2] it was 35 mm; in test [3] it was 39 mm; in test [4], 10 mm. In addition, the zone of inhibition at 30000 ppm was determined as 31 mm in test [1], 39 mm in test [2], 44 mm in test [3] and 17 mm in test [4]. Moreover, the zone of inhibition at 50000 ppm in test [1] was found to be 39 mm; in test [2] it was 44 mm; in test [3], 49 mm; in test [4], 22 mm. Moreover, the “antibacterial activities (in words)” value in test [5] is recorded as “good antibacterial activities”.
On to `O=C(O)c1cn(C2CC2)c2cc(N3CCNCC3)c(F)cc2c1=O` [Cip., ciprofloxacin, reference compound], for which the zone of inhibition at 10000 ppm amounted to 29 mm in test [1], 29 mm in test [2], 30 mm in test [3] and 43 mm in test [4]. Also, the zone of inhibition at 30000 ppm in test [1] amounted to 30 mm; in test [2], 30 mm; in test [3] it was 39 mm; in test [4], 44 mm. Also, the zone of inhibition at 50000 ppm in test [1] came to 53 mm; in test [2], 42 mm; in test [3], 60 mm; in test [4], 53 mm.
